Experiment [1] is described as follows: Trolox Equivalent Antioxidant Capacity (TEAC), ABTS Decolorization Assay. The class given is biochemical. The method, then:
As positive controls of the assay, ascorbic acid 2-glucoside (hereinafter, AA-2G) and magnesium ascorbyl phosphate (hereinafter, MAP) were tested.
TEAC assay was used in this case. Said assay measures the antioxidant capacity of a given substance, as compared to the standard, Trolox, an analogue of Vitamin E.
Antioxidant capacity was measured using the ABTS Decolorization Assay. In this assay, the pre-formed radical monocation of 2,2′-azinobis-(3-ethylbenzothiazoline-6-sulfonic acid) (ABTS*+) was generated by oxidation of ABTS with potassium persulfate and was reduced in the presence of antioxidants (Ac-SEQ ID NO: 1-NH2, Ac-SEQ ID NO: 2-NH2, Ac-SEQ ID NO: 3-NH2 or Ferulic acid-SEQ ID NO: 2-NH2). The ABTS.+ has a blue-green color, with maximum absorptions at 650, 734 and 820 nm. Antioxidants in the sample reduce ABTS.+ suppressing this color production to a degree that is proportional to their concentrations and antioxidant capacity. Quantification of absorbance was conducted at 734 nm using a Polarstar Omega equipment (BMG Labtech).

For experiment [2], the system named is Primary human epidermal keratinocytes. The experiment can be described thus: Protection against oxidative stress (reactive oxygen species) induced by hydrogen peroxide. The class given is cell-based. The settings on record: all concentrations tested. As to the method: Columns from left to right in the x-axis of FIG. 4(A) correspond to: basal state (cells to which no treatment is applied), positive control, negative control of oxidation (sample treated with 1 mM ascorbic acid) and treatments with Ac-SEQ ID NO: 1-NH2 concentrations of 0.001 mg/ml, 0.005 mg/ml and 0.01 mg/ml, respectively. […] Columns from left to right in the x-axis of FIG. 3(B) correspond to: basal state (cells to which no treatment is applied), positive control, negative control (sample treated with 1 mM ascorbic acid) and treatments with Ac-SEQ ID NO: 2-NH2 concentrations of 0.001 mg/ml, 0.005 mg/ml, 0.01 mg/ml and 0.05 mg/ml, respectively.
Primary human epidermal keratinocytes were seeded in black 96 well-plates in the corresponding culture medium and, 48 hours later, treated with the different compounds analysed (Ac-SEQ ID NO: 1-NH2 or Ac-SEQ ID NO: 2-NH2) for 3 hours at 37° C. or with ascorbic acid as an antioxidant control. After incubation, cells were loaded with a fluorescence probe for 45 minutes and then H2O2 was added for 30 minutes.
Finally, fluorescence was determined at Excitation 485 nm/Emission 520 nm.

Experiment [3] has the same test system. The experiment can be described thus: Protection against DNA oxidation induced by synthetic smoke (8-OHdG, competitive ELISA). The class given is cell-based. The settings on record: synthetic smoke 48 h. As to the method: Primary human epidermal keratinocytes were seeded in 96-well plates in standard culture medium and, 24 hours later, subjected to a simultaneous treatment with synthetic smoke containing selected compounds from the particle phase (for example, cadmium and nicotine) and vapour phase (for example, formaldehyde (hereinafter, FA) and ethyl carbamate) of tobacco smoke and the analysed compound (Ac-SEQ ID NO: 1-NH2) for 48 h.
After treatment, cells were lysed and DNA oxidation on cell homogenates was analysed measuring levels of 8-OHdG by means of a competitive ELISA assay with absorbance at 450 nm.
For orientation: ELISA stands for enzyme-linked immunosorbent assay.

Each structure is given as a SMILES string. Residues, ends and D or L forms follow the SMILES beside them.

`CC(=O)N[C@@H](CC(=O)O)C(=O)N[C@@H](Cc1ccc(O)cc1)C(=O)N[C@@H](CCCCN)C(=O)N[C@H](C(N)=O)C(C)C` [Ac-SEQ ID NO: 1-NH2, Ac-Asp-Tyr-Lys-Val-NH2] (Ac-DYKV-NH2): the trolox equivalents in experiment [1] (0.01 mg/mL) is 15 µM; in experiment [1] (0.05 mg/mL), 24 µM; in experiment [1] (0.1 mg/mL) it was 94 µM. The “activity against hydrogen peroxide induced reactive oxygen species compared with Ac-SEQ ID NO: 2-NH2” value in experiment [2] is on record as “increased activity in all concentrations tested”. In experiment [3] (0.1 mg/ml), the “protection of DNA oxidation” value is “almost complete inhibition of the effects of synthetic smoke”. The “DNA oxidation (8-OHdG)” value in experiment [3] (lower tested concentration (0.01 mg/ml)) is recorded as “slight decrease (non-statistically significant)”; in experiment [3] (other two tested concentrations (0.05, 0.1 mg/ml)) it was “higher, statistically significant, effect”.

The values above are taken from patent US11246818B2, “Peptides and compositions for use in cosmetics” (LIPOTRUE, S.L., priority 2017, dated 2022).
